# Laboratory results taken from ChEMBL document CHEMBL1777689 (Bioorg Med Chem Lett, 2011).
# Activity calls are given as the source filed them. The calls are words filed in the database; no cut-off is given here.
# Assays:
# [1] = biological target: CYP2C9 (Homo sapiens, UniProt P11712); test: Inhibition of CYP2C9 at 3 uM; format: ADME
# [2] = biological target: CYP2D6 (Homo sapiens, UniProt P10635); test: Inhibition of CYP2D6 at 3 uM; format: ADME
# [3] = biological target: CYP3A4 (Homo sapiens, UniProt P08684); test: Inhibition of CYP3A4 at 3 uM; format: ADME
# [4] = Aqueous solubility of the compound; format: physicochemical; details: buffer
# [5] = Half life in human liver microsomes; format: ADME, Microsome
# [6] = Half life in mouse liver microsomes; format: ADME, Microsome
# [7] = Half life in rat liver microsomes; format: ADME, Microsome
# [8] = biological target: Heat shock protein HSP 90-alpha (Homo sapiens, UniProt P07900)
# [9] = biological target: Voltage-gated inwardly rectifying potassium channel KCNH2 (Homo sapiens, UniProt Q12809)
# [10] = system: HCT-116;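 further: antiproliferative effect on human HCT116 cells, read out by luminescence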
# [11] = biological target: Tyrosine-protein kinase Fyn (Homo sapiens, UniProt P06241); test: Inhibition of FYN
# [12] = biological target: Proto-oncogene tyrosine-protein kinase Src (Homo sapiens, UniProt P12931); test: Inhibition of SRC-related membrane-associated tyrosine kinase
# [13] = Half life in CD-1 mouse at 2 mg/kg, iv; format: ADME, organism-based; design: dose 2 mg/kg, route intravenous; details: in vivo
# [14] = AUC (0 to infinity) in CD-1 mouse at 2 mg/kg, iv; format: ADME, organism-based; design: time infinity, dose 2 mg/kg, route intravenous; details: plasma
# [15] = Plasma clearance in CD-1 mouse at 2 mg/kg, iv; format: ADME, organism-based; design: dose 2 mg/kg, route intravenous
# [16] = Volume of distribution at steady state in CD-1 mouse at 2 mg/kg, iv; format: ADME, organism-based; design: dose 2 mg/kg, route intravenous; details: in vivo, read-out: Vdss
# [17] = Half life in CD-1 mouse at 10 mg/kg, po; format: ADME, organism-based; design: dose 10 mg/kg, route oral; details: in vivo
# [18] = AUC (0 to infinity) in CD-1 mouse at 10 mg/kg, po; format: ADME, organism-based; design: time infinity, dose 10 mg/kg, route oral; details: plasma
# [19] = system: U-87MG ATCC; details: Homo sapiens
# [20] = system: U-87MG ATCC; details: Homo sapiens; remark: listed apart in the source
# [21] = system: U-87MG ATCC; details: Homo sapiens; remark: listed apart in the source
# [22] = Bioavailability in CD-1 mouse at 10 mg/kg, po; details: in vivo
# CYP3A4, sequence (P08684 whole entry): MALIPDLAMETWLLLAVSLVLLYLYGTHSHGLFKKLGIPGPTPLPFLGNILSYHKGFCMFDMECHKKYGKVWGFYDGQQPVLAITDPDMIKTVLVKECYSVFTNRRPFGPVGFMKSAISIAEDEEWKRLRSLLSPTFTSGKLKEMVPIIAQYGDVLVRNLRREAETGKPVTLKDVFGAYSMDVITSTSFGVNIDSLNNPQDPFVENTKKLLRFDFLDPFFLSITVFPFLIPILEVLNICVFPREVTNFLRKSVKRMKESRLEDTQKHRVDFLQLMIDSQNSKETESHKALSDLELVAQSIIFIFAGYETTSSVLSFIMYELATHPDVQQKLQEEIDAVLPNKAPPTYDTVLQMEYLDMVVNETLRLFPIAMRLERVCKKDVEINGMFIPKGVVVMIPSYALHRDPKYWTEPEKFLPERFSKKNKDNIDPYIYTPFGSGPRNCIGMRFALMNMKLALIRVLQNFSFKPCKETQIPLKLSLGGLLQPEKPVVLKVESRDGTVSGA
# Voltage-gated inwardly rectifying potassium channel KCNH2, sequence (Q12809 whole entry): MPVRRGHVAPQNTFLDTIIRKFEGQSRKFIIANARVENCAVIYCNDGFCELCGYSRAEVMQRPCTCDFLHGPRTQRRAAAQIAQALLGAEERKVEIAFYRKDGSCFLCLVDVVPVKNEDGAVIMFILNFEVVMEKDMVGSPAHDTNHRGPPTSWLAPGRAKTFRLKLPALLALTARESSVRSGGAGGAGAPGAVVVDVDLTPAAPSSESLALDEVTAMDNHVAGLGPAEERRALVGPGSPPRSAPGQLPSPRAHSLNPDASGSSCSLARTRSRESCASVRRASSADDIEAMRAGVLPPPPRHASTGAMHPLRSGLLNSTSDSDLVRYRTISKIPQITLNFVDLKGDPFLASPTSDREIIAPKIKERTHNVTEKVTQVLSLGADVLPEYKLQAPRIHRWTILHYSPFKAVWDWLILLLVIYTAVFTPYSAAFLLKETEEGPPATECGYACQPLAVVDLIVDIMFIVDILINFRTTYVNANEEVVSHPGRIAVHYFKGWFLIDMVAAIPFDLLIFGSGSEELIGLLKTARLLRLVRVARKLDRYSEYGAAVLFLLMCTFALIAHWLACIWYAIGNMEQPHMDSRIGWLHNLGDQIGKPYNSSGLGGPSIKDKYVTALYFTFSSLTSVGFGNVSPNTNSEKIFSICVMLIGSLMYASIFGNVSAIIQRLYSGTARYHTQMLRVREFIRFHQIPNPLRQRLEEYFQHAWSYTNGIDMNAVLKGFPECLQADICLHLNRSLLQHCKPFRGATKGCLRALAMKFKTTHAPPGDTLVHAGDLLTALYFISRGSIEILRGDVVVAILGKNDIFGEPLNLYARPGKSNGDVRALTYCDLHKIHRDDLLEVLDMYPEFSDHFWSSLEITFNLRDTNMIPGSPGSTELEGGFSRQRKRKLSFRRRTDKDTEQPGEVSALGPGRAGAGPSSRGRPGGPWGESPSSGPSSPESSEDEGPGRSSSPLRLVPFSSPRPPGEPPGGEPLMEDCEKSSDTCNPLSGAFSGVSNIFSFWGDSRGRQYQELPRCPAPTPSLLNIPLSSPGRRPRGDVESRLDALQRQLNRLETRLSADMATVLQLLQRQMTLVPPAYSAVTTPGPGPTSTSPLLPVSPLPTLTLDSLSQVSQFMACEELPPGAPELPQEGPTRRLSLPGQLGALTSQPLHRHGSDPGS
# CYP2D6, sequence (P10635 whole entry): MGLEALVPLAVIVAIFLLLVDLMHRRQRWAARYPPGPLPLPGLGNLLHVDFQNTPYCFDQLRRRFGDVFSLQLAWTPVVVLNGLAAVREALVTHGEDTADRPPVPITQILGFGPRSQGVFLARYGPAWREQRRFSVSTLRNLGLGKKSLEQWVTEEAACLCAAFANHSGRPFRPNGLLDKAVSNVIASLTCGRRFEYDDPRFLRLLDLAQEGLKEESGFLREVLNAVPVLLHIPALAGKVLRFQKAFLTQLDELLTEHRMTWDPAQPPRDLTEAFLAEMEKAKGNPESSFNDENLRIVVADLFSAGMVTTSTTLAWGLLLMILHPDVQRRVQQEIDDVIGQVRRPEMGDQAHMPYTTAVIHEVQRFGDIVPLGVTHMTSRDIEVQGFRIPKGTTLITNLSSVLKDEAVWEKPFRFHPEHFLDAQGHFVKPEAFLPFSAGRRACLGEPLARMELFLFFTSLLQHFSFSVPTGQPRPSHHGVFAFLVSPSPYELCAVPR
# CYP2C9, sequence (P11712 whole entry): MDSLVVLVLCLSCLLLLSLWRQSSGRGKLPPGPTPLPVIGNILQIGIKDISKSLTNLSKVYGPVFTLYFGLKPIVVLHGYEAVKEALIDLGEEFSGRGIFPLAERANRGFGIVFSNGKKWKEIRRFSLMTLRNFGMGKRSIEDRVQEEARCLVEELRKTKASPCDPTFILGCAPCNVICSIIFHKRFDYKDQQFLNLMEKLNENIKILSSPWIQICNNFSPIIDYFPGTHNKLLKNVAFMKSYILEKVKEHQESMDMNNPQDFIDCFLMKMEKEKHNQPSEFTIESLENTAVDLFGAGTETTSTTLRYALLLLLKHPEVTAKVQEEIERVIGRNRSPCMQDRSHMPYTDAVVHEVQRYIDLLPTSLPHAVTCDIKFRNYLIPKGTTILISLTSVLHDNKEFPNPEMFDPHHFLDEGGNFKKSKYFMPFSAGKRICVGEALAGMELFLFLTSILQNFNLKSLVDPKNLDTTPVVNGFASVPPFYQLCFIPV
# Tyrosine-protein kinase Fyn, sequence (P06241 whole entry): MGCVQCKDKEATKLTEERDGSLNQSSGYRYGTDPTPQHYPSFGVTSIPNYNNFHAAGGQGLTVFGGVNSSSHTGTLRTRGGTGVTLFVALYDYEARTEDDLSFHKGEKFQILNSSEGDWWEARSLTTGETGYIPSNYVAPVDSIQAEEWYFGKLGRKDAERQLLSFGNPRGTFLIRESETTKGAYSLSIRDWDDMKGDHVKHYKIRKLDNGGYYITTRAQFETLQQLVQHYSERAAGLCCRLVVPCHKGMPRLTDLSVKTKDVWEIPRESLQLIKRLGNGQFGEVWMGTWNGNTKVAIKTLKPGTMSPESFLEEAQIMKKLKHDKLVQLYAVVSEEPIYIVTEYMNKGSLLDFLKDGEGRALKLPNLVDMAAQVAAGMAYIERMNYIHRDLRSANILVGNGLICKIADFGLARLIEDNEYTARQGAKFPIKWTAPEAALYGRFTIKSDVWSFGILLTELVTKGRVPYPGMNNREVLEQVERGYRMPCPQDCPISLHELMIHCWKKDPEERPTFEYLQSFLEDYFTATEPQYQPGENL
# Proto-oncogene tyrosine-protein kinase Src, sequence (P12931 2-536 limits assumed): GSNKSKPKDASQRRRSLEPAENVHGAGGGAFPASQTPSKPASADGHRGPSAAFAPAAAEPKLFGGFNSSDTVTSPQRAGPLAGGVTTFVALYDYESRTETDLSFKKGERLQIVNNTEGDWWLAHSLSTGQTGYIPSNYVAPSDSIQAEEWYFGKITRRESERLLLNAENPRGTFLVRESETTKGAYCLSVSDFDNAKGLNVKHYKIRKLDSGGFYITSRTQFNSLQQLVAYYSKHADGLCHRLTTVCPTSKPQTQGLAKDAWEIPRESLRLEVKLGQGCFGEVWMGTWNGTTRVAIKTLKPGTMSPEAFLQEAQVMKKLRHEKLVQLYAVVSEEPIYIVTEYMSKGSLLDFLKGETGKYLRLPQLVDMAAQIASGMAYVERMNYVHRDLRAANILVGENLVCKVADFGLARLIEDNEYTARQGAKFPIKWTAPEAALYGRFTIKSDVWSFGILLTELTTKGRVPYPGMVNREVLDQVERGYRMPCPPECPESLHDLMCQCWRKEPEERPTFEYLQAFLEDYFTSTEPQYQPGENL
Compound,inhibition at 3 µM [1] [%],inhibition at 3 µM [2] [%],inhibition at 3 µM [3] [%],solubility ([4]; read-out: solubility) [µg/mL],half-life [5] [min],half-life [6] [min],half-life [7] [min],IC50 [8] [nM],IC50 [9] [nM],EC50 [10] [nM],other results
Cc1c2c(n3c1CCCN1C[C@@H](F)C[C@@H]1CNc1cc-3ccc1C(N)=O)CC(C)(C)CC2=O,46,9,77,3,4,5,2,61,16400,60,–
Cc1c2c(n3c1CCCN1CCC[C@@H](C1)Nc1cc-3ccc1C(N)=O)CC(C)(C)CC2=O,74,12,76,16,2,3,8,78,3400,39,–
Cc1c2c(n3c1CCCN1CCC[C@H]1CNc1cc-3ccc1C(N)=O)CC(C)(C)CC2=O,–,–,–,–,–,–,–,–,–,1140,solubility [4]: 66 µg/mL
Cc1c2c(n3c1CCCN1C[C@@H](N4CCCC4)C[C@@H]1CNc1cc-3ccc1C(N)=O)CC(C)(C)CC2=O,3,69,34,71,–,–,5,496,–,2430,–
Cc1c2c(n3c1CCCN1CC[C@H](CNc4cc-3ccc4C(N)=O)C1)CC(C)(C)CC2=O,2,0,53,> 100,23,> 30,21,201,440,100,–
Cc1c2c(n3c1CCCN1CCCC[C@@H]1[C@H](C)Nc1cc-3ccc1C(N)=O)CC(C)(C)CC2=O,4,4,55,35,3,6,7,170,1500,67,–
Cc1c2c(n3c1CCCNC(=O)[C@H](C)Nc1cc-3ccc1C(N)=O)CC(C)(C)CC2=O,23,5,6,> 100,4,> 30,> 30,82,–,56,–
Cc1c2c(n3c1CCN1CCC[C@@H]1CNc1cc-3ccc1C(N)=O)CC(C)(C)CC2=O,0,6,32,6,–,–,6,883,–,460,–
Cc1c2c(n3c1CCCN1CCNC[C@H]1CNc1cc-3ccc1C(N)=O)CC(C)(C)CC2=O,12,3,1,> 100,> 30,> 30,> 30,3320,–,1850,–
CC(=O)N[C@H]1C[C@@H]2CNc3cc(ccc3C(N)=O)-n3c(c(C)c4c3CC(C)(C)CC4=O)CCCN2C1,–,–,–,–,–,–,–,634,–,2560,–
Cc1c2c(n3c1CCCN1CC[C@@H](C1)Nc1cc-3ccc1C(N)=O)CC(C)(C)CC2=O,25,23,70,49,–,–,5,982,–,671,–
Cc1c2c(n3c1CCCN1C[C@H](O)C[C@@H]1CNc1cc-3ccc1C(N)=O)CC(C)(C)CC2=O,9,33,64,67,3,7,10,153,–,192,–
Cc1c2c(n3c1CCCN1CC[C@@H](CNc4cc-3ccc4C(N)=O)C1)CC(C)(C)CC2=O,–,–,–,–,–,–,–,> 5000,–,2970,–
Cc1c2c(n3c1CCCCN1CCC[C@@H]1CNc1cc-3ccc1C(N)=O)CC(C)(C)CC2=O,0,2,67,> 100,5,11,8,301,–,232,–
CC(=O)N1CCN2CCCc3c(C)c4c(n3-c3ccc(C(N)=O)c(c3)NC[C@H]2C1)CC(C)(C)CC4=O,15,4,34,> 100,14,5,3,106,24400,140,–
Cc1c2c(n3c1CCCN1CCC[C@@H]1CNc1cc-3ccc1C(N)=O)CC(C)(C)CC2=O,6,–,–,2320,–,–,6,–,2600,–,IC50 [11]: 22000 nM; IC50 [12]: > 50000 nM; half-life [13]: 276 min; AUC(0-inf) [14]: 1740 ng·h/mL; clearance [15]: 19 mL/min/kg; Vd [16]: 5.3 L/kg; half-life [17]: 312 min; AUC(0-inf) [18]: 6460 ng·h/mL; inhibition [19]: Active; inhibition [20]: Active; inhibition [21]: Active; bioavailability [22]: 74%
Cc1c2c(n3c1CCCN1CCCC[C@@H]1CNc1cc-3ccc1C(N)=O)CC(C)(C)CC2=O,0,16,77,52,8,27,3,126,–,32,–
Cc1c2c(n3c1CCC(=O)N1CCC[C@@H]1CNc1cc-3ccc1C(N)=O)CC(C)(C)CC2=O,–,–,–,–,–,–,–,188,–,310,–
Cc1c2c(n3c1CCCN1CCOC[C@@H]1CNc1cc-3ccc1C(N)=O)CC(C)(C)CC2=O,39,0,71,29,3,7,3,96,12500,34,–
